The source of these data is publication PMC6576746, “Rational discovery of dual-indication multi-target PDE/Kinase inhibitor for precision anti-cancer therapy using structural systems pharmacology” (PLoS Computational Biology, 2019).

Test in all cases: biochemical
What all share (parameters): DiscoverX KinomeScan competition binding assay across human kinases; per cent of control at 10 and 100 uM

One assay has as its target BRAF (Homo sapiens, UniProt P15056). The note with it: competition binding, % of control; read-out: Percent Control (100 uM Levosimendan). How it is done: (§1) To validate our computational predictions, we employed a competition binding assay to detect the binding of levosimendan to 425 human kinases as well as its dose-response curve to RIOK1. The proprietary KinomeScan assay was performed by DiscoverX (Fremont, California, USA). The tests were performed at 10 μM and 100 μM concentrations of levosimendan, respectively. Assay results were reported as %control, calculated as follows: %control=(TestCompoundSignal−PositiveControlSignal)/(NegativeControlSignal−PositiveControlSignal)×100 KinomeScan assay across 452 human kinases verified our computational prediction (S1 Table). RIOK1 is one of the strongest inhibited kinases by levosimendan. The percentage control of RIOK1 is 15.0 and 0.0 under the treatment of 10 μM and 100 μM of levosimendan, respectively. […] The percentage controls of five kinases: FLT3, MAP2K5, PIP5K1A, GAK, and KIT are less than 30.0 under the treatment of both 10 μM and 100 μM of levosimendan. Both FLT3 and KIT are tyrosine protein kinases. Their inhibitors have recently been approved for the treatment of Acute Myeloid Leukemia and other types of cancers, but a combination therapy is needed to overcome rapidly emerged drug resistance, thus improve patients’ drug responses. Other kinases inhibited by levosimendan belong to serine/threonine protein kinase family (RIOK1, RIOK3, GAK, and MAP2K5) and lipid kinase family (PIP5K1A). […] As a result, levosimendan may modulate different cancer pathways from those by the tyrosine protein kinase inhibitors, and it could be a novel lead compound for a new anti-cancer therapy to overcome drug resistance of existing drugs or to target different types of cancers through polypharmacology or drug combination.

For the next assay, the target named is MAP3K1 (Homo sapiens, UniProt Q13233). The note with it: competition binding, % of control; read-out: Percent Control (100 uM Levosimendan). How it is done:
as §1

The next assay deals with GRK3 (Homo sapiens, UniProt P35626). The note with it: competition binding, % of control; read-out: Percent Control (100 uM Levosimendan). On the procedure: as §1
A further assay addresses STK39 (Homo sapiens, UniProt Q9UEW8). The note with it: competition binding, % of control; read-out: Percent Control (100 uM Levosimendan). How it is done:
as §1

In another assay the target is SIK2 (Homo sapiens, UniProt Q9H0K1). The note with it: competition binding, % of control; read-out: Percent Control (100 uM Levosimendan). How it is done:
as §1

Another assay addresses T1, NIK (Homo sapiens, UniProt Q99558).
T1 construct: gene MAP3K14
The note with it: competition binding, % of control; read-out: Percent Control (100 uM Levosimendan). On the procedure:
as §1

Another assay concerns the target LYN (Homo sapiens, UniProt P07948). The note with it: competition binding, % of control; read-out: Percent Control (100 uM Levosimendan). On the procedure:
as §1

The target in a further assay is PKN2 (Homo sapiens, UniProt Q16513). The note with it: competition binding, % of control. On the procedure: as §1
PKN2, sequence (Q16513 whole entry): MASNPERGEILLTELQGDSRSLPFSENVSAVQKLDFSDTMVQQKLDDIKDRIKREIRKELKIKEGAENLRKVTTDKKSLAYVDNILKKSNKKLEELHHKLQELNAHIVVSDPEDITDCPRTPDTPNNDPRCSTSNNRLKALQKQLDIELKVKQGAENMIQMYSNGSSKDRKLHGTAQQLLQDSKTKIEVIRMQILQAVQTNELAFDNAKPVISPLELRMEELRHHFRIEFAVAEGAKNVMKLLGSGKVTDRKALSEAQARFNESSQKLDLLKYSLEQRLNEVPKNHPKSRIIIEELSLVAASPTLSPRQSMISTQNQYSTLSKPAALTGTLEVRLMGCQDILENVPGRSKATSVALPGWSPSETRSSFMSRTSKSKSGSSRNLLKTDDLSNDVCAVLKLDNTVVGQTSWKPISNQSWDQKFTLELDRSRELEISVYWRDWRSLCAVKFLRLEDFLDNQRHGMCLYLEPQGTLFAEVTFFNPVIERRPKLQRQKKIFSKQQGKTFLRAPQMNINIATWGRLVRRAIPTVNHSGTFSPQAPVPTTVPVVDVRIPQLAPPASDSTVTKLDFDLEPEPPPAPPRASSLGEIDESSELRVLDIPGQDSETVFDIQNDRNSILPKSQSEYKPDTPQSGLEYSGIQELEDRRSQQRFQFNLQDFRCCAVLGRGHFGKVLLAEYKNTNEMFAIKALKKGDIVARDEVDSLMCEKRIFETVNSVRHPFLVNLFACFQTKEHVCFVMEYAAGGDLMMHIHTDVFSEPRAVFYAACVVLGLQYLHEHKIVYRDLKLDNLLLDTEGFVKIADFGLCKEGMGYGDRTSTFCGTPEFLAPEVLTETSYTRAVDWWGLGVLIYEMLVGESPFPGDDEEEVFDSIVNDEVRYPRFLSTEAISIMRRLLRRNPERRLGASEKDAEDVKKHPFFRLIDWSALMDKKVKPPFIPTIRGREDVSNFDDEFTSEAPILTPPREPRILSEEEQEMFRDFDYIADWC
In assay [1] the target is T2, RSK2(Kin.Dom.1-N-terminal) (Homo sapiens, UniProt P51812).
T2 construct: gene RPS6KA3; Kin.Dom.1-N-terminal
T2 sequence (P51812 whole entry): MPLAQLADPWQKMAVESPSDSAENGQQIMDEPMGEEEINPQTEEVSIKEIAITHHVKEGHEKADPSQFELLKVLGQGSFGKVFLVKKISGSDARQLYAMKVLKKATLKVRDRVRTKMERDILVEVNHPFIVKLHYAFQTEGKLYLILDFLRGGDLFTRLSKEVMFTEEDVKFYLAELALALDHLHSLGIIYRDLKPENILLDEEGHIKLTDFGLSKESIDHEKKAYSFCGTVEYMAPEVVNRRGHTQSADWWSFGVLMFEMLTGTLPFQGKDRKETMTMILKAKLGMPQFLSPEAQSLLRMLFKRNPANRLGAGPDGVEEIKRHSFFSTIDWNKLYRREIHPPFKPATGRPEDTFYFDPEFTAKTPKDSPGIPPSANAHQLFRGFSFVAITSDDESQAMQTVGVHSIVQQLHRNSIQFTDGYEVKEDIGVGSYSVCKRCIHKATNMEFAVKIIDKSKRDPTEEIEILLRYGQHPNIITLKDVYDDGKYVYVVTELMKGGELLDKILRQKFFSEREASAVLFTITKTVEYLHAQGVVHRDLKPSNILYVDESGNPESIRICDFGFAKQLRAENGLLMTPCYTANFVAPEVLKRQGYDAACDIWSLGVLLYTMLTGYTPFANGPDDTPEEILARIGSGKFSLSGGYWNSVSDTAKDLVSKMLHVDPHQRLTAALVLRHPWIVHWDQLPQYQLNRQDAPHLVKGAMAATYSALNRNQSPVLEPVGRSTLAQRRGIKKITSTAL
The note with it: competition binding, % of control. How it is done:
as §1

The target of another assay is TLK2 (Homo sapiens, UniProt Q86UE8). The note with it: competition binding, % of control; read-out: Percent Control (100 uM Levosimendan). On the procedure: as §1
TLK2, sequence (Q86UE8 whole entry): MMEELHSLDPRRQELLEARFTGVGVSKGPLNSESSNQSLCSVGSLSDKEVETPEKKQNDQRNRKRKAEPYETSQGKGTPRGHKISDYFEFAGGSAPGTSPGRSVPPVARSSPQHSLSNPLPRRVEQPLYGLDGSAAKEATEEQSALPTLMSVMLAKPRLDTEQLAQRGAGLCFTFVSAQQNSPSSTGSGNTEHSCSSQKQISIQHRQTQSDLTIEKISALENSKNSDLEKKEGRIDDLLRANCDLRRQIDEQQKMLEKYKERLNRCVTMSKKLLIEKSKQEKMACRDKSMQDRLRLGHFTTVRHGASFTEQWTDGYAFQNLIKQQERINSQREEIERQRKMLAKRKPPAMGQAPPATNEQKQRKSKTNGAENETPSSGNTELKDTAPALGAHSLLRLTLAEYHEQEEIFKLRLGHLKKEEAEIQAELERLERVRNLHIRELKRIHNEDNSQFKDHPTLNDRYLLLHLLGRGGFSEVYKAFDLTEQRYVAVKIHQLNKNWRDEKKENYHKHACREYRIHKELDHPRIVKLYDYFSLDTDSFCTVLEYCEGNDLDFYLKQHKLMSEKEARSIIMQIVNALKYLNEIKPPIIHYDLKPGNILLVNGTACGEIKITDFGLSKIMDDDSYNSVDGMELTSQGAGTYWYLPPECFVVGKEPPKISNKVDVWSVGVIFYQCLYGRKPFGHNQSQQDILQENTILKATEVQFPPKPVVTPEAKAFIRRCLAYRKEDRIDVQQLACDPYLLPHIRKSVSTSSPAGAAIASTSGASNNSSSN
A further assay concerns the target EPHA3 (Homo sapiens, UniProt P29320). The note with it: competition binding, % of control; read-out: Percent Control (100 uM Levosimendan). On the procedure: as §1
The next assay addresses T3, SgK110 (Homo sapiens, UniProt P0C264).
T3 construct: gene SBK3
The note with it: competition binding, % of control; read-out: Percent Control (100 uM Levosimendan). How it is done:
as §1

A further assay addresses AKT2 (Homo sapiens, UniProt P31751). The note with it: competition binding, % of control; read-out: Percent Control (100 uM Levosimendan). On the procedure:
as §1

The target of assay [2] is T4, ABL1(E255K)-phosphorylated (Homo sapiens, UniProt P00519, E255K).
T4 construct: phosphorylated
T4 sequence (P00519 whole entry E255K): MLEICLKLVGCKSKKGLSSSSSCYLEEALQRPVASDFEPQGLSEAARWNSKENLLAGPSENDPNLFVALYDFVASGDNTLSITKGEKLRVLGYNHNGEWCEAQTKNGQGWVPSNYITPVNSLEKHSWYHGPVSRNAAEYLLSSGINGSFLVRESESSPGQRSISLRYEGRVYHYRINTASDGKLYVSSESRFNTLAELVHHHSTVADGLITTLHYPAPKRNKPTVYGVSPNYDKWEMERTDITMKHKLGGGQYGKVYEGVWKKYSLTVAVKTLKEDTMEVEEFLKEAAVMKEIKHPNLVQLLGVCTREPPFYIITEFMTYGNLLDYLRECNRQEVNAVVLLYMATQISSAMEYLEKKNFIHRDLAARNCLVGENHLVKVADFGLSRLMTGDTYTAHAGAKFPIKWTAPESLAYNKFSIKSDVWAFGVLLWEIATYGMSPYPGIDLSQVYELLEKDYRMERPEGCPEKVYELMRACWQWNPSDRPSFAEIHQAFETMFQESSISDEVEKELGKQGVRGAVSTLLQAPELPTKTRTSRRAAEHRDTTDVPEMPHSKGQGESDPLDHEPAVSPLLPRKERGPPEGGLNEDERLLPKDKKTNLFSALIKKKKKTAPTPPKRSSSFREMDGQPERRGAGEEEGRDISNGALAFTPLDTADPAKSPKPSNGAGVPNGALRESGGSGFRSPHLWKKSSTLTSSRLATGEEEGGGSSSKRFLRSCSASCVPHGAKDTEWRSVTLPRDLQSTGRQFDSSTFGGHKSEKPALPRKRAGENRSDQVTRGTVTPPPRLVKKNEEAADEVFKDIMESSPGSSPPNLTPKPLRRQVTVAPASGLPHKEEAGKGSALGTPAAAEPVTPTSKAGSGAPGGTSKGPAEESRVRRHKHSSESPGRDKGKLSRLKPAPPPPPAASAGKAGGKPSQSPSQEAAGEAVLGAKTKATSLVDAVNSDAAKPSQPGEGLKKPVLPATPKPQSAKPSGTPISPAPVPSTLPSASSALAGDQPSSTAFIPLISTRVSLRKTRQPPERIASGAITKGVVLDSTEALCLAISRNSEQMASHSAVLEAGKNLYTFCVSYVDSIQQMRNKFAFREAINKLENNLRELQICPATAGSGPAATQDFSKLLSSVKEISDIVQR
The note with it: competition binding, % of control. How it is done: as §1

Another assay addresses T5, ERK8 (Homo sapiens, UniProt Q8TD08).
T5 construct: gene MAPK15
The note with it: competition binding, % of control; read-out: Percent Control (100 uM Levosimendan). How it is done:
as §1

A further assay deals with MAP4K5 (Homo sapiens, UniProt Q9Y4K4). The note with it: competition binding, % of control; read-out: Percent Control (100 uM Levosimendan). On the procedure: as §1
The target in another assay is STK16 (Homo sapiens, UniProt O75716). The note with it: competition binding, % of control; read-out: Percent Control (100 uM Levosimendan). On the procedure:
as §1

A further assay concerns the target PRKX (Homo sapiens, UniProt P51817). The note with it: competition binding, % of control; read-out: Percent Control (100 uM Levosimendan). On the procedure:
as §1

The target of another assay is BRSK1 (Homo sapiens, UniProt Q8TDC3). The note with it: competition binding, % of control; read-out: Percent Control (100 uM Levosimendan). How it is done:
as §1

Setting [3] is: read-out: Percent Control (10 uM Levosimendan).
Where [4] appears, read: read-out: Percent Control (100 uM Levosimendan).

AKT2, sequence (P31751 whole entry): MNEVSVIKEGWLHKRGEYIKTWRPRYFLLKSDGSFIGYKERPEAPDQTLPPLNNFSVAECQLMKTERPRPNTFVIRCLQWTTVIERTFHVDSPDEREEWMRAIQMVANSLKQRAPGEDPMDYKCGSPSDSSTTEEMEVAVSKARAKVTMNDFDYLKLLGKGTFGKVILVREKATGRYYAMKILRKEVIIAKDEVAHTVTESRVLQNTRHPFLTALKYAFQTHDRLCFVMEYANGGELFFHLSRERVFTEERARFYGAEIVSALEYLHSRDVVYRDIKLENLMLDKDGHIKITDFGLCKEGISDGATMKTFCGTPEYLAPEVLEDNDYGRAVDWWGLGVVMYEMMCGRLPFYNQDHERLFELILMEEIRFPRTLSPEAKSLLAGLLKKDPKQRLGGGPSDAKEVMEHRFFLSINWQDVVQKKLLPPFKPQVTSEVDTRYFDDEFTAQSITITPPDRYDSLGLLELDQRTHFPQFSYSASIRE
STK16, sequence (O75716 whole entry): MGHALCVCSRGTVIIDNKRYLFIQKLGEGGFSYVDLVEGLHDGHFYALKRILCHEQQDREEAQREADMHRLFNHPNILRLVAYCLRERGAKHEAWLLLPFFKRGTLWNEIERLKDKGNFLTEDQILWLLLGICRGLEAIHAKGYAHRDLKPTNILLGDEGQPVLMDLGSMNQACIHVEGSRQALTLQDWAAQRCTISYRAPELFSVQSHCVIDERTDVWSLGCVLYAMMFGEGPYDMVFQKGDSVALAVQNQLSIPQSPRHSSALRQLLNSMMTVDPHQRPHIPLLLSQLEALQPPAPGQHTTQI
T3 sequence (P0C264 whole entry): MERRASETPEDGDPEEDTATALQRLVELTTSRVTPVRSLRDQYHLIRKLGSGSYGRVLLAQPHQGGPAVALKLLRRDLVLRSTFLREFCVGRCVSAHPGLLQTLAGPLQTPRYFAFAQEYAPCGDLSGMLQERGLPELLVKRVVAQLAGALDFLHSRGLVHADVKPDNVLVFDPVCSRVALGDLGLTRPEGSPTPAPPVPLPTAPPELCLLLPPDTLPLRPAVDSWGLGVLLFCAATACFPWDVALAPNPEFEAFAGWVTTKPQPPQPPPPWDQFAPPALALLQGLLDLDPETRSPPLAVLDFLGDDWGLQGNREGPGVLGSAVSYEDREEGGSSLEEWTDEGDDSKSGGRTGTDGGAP

Consider `C[C@@H]1CC(=O)NN=C1c1ccc(NN=C(C#N)C#N)cc1` [levosimendan], for which the remaining binding at 100 µM was found to be 81% on BRAF; 100% on MAP3K1; 100% at GRK3; 100% on STK39; 65% on SIK2; 83% at NIK. Moreover, the remaining binding at 100 µM on LYN is 69%; at PKN2 (setting [4]), 49%; in [1] (setting [4]), 35%; on TLK2, 97%; on EPHA3 it was 97%; on SgK110, 100%. The remaining binding at 100 µM at AKT2 was 64%; in assay [2] (setting [4]), 34%; on ERK8, 100%; at MAP4K5 it was 100%; on STK16 it was 80%; on PRKX it was 76%. Further, the remaining binding at 100 µM at BRSK1 amounted to 100%. Also, the remaining binding at 10 µM was 94% on PKN2 (setting [3]), 85% in assay [1] (setting [3]) and 97% in assay [2] (setting [3]).
